Results on 31 molecules are retold here after patent US10450326B2, “Thiazolopyrimidinone compounds and preparation methods and use thereof” (PEKING UNIVERSITY, priority 2015, dated 2019).

In the test the target is T1, α7 nAChR (Homo sapiens, UniProt P36544).
T1 construct: expressed in transfected cells; host or cells: Xenopus oocytes (cRNA injection)
Description: α7 nAChR positive allosteric modulator activity assay, voltage clamp in Xenopus oocytes with 100 μM ACh. As to conditions: for activity at 10 µM: at 10 μM compound, current induced by 100 μM ACh, Xenopus oocytes expressing α7 nAChR, read-out: Max Mod (%, at 10 μM); for EC50: potentiation of current induced by 100 μM ACh, Hill equation fit. It counts as cell-based. As to the method: The experimental process was as follows:
(1) Xenopus oocytes were injected with cRNA encoding α7 nAChR in order to express α7 nAChR on the cell membrane successfully;
(2) 100 μM ACh alone was added, and the α7 nAChR characteristic current caused by it was recorded as a control;
(5) The oocytes were incubated for 1 min with 10 μM compound, then 10 µM compound and 100 μM ACh were added simultaneously and the current induced by ACh was recorded at this time;
(6) The differences between the two currents in terms of peak intensity and duration were compared, with the ratio of peak intensity of the two currents representing the adjustment effect (Enhance Rate), in order to determine whether the compound had PAM activity, if the activity was good, then the subsequent test was carried out;
(7) Concentration gradient was set and the effects of compounds at different concentrations on the α7 nAChR characteristic current induced by 100 μM ACh were evaluated. Several determinations were carried out at the same concentration, and the results were presented in the form of “mean±standard deviation”;
(8) The EC50 (median maximum effect concentration) values and Max mod (the current amplitude caused by the maximal degree of adjustable endogenous agonist acetylcholine) values of the compounds and other activity data were obtained by Hill equation Inormalized=Emax/(1+(EC50/C)nH).
The amplitude of the peak current is only normalized by the amplitude produced by 100 μM ACh and different concentrations of LD486. […] It can be seen from FIG. 3 that the Hill equation is used to fit the dose-response curve and calculate the kinetic parameters.

T1 sequence (P36544 23-502): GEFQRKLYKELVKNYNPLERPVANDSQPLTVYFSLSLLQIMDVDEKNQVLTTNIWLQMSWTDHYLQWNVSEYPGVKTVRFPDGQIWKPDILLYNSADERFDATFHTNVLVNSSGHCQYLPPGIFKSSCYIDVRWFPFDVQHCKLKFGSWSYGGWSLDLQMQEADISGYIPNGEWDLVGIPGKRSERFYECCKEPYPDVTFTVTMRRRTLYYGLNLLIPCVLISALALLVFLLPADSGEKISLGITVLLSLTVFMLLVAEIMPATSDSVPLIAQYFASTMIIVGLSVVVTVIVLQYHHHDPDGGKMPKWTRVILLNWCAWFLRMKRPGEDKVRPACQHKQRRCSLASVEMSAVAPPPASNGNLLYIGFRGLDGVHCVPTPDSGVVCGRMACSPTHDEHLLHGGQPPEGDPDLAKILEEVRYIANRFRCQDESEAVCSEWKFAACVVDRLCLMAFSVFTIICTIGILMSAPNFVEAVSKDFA

Take `Cc1nc(Cl)cc(Nc2nc3nnn(-c4c(C)cccc4Cl)c(=O)c3s2)n1` [JWX-A3N, 6-((6-Chloro-2-methylpyrimidin-4-yl)amino)-3-(2-chloro-6-methylphenyl)thiazolo[4,5-d][1,2,3]triazin-4(3H)-one]: the activity at 10 µM was determined as 110%. With `Cc1ccc(Nc2nc3ncn(-c4c(C)cccc4Cl)c(=O)c3s2)cc1F` [JWX-A0108, 6-(2-Chloro-6-methylphenyl)-2-((3-fluoro-4-methylphenyl)amino)thiazolo[4,5-d]pyrimidin-7(6H)-one], the EC50 – broadly, the concentration that produces a half-maximal response – is 3.39 µM. On to `Cc1cccc(Cl)c1-n1cnc2nc(NC(=O)c3ccccc3)sc2c1=O` [JWX-A0121, N-(6-(2-Chloro-6-methylphenyl)-7-oxo-6,7-dihydrothiazolo[4,5-d]pyrimidin-2-yl)benzamide], for which the activity at 10 µM worked out at 200% and the EC50 came to 10 µM.

As to `Cc1ccc(C(=O)Nc2nc3ncn(-c4c(C)cccc4Cl)c(=O)c3s2)cc1` [JWX-A0310, N-(6-(2-Chloro-6-methylphenyl)-7-oxo-6,7-dihydrothiazolo[4,5-d]pyrimidin-2-yl)-4-methylbenzamide], the activity at 10 µM worked out at 450% and the EC50 came to 10 µM.

As for `COc1ccc(C(=O)Nc2nc3ncn(-c4c(C)cccc4Cl)c(=O)c3s2)cc1` [JWX-A0312, N-(6-(2-Chloro-6-methylphenyl)-7-oxo-6,7-dihydrothiazolo[4,5-d]pyrimidin-2-yl)-4-methoxybenzamide], the activity at 10 µM was determined as 630% and the EC50 was 10 µM. As for `Cc1ccc(Nc2nc3ncn(-c4c(C)cccc4Cl)c(=O)c3s2)cc1C` [JWX-A0315, 6-(2-Chloro-6-methylphenyl)-2-((3,4-dimethylphenyl)amino)thiazolo[4,5-d]pyrimidin-7(6H)-one], the activity at 10 µM was 650% and the EC50 was 6.99 µM.

As to `Cc1cc(Nc2nc3ncn(-c4c(C)cccc4Cl)c(=O)c3s2)cc(C)c1C` [JWX-A0322, 6-(2-Chloro-6-methylphenyl)-2-((3,4,5-trimethylphenyl)amino)thiazolo[4,5-d]pyrimidin-7(6H)-one], the activity at 10 µM was 600% and the EC50 came to 3.15 µM.

On to `Cc1ccc(Nc2nc3ncn(-c4ccccc4C)c(=O)c3s2)cc1` [JWX-A0414, 6-(o-Tolyl)-2-(p-tolylamino)thiazolo[4,5-d]pyrimidin-7(6H)-one], for which the activity at 10 µM amounted to 150% and the EC50 was 10 µM. Consider `Cc1ccc(Nc2nc3ncn(-c4ccccc4Cl)c(=O)c3s2)cc1` [JWX-A0415, 6-(2-Chlorophenyl)-2-(p-tolylamino) thiazolo[4,5-d]pyrimidin-7(6H)-one], for which the activity at 10 µM is 680% and the EC50 was found to be 10 µM. As for `Cc1ccccc1Nc1nc2ncn(-c3c(C)cccc3Cl)c(=O)c2s1` [JWX-A0602, 6-(2-Chloro-6-methylphenyl)-2-(o-tolylamino)thiazolo[4,5-d]pyrimidin-7(6H)-one], the activity at 10 µM was 300% and the concentration giving a half-maximal response (EC50) is 10 µM. The corresponding values for `Cc1cccc(Cl)c1-n1cnc2nc(Nc3ccccc3F)sc2c1=O` [JWX-A0611, 6-(2-Chloro-6-methylphenyl)-2-((2-fluorophenyl)amino)thiazolo[4,5-d]pyrimidin-7(6H)-one] are 200% and 10 µM.

For `Cc1cccc(Cl)c1-n1cnc2nc(NC(=O)c3ccc(F)cc3)sc2c1=O` [JWX-A0617, N-(6-(2-Chloro-6-methylphenyl)-7-oxo-6,7-dihydrothiazolo[4,5-d]pyrimidin-2-yl)-4-fluorobenzamide], the activity at 10 µM worked out at 150% and the EC50 worked out at 10 µM. For the molecule `Cc1nc(Nc2nc3ncn(-c4c(C)cccc4Cl)c(=O)c3s2)cc(N2CCN(CCO)CC2)n1` [JWX-A0728, 6-(2-Chloro-6-methylphenyl)-2-((6-(4-(2-hydroxyethyl)piperazin-1-yl)-2-methylpyrimidin-4-yl)amino)thiazolo[4,5-d]pyrimidin-7(6H)-one], the activity at 10 µM is 110%. On to `Cc1cccc(Cl)c1-n1cnc2nc(Nc3ccccc3)sc2c1=O` [JWX-A0824, 6-(2-Chloro-6-methylphenyl)-2-(phenylamino)thiazolo[4,5-d]pyrimidin-7(6H)-one], for which the activity at 10 µM came out at 300% and the EC50 was found to be 10 µM. For `Cc1cccc(Cl)c1-n1cnc2nc(Nc3ccccn3)sc2c1=O` [JWX-A0828, 6-(2-Chloro-6-methylphenyl)-2-(pyridin-2-ylamino)thiazolo[4,5-d]pyrimidin-7(6H)-one], the activity at 10 µM amounted to 110%. On to `Cc1cccc(Cl)c1-n1cnc2nc(O)sc2c1=O` [JWX-A0903, 6-(2-Chloro-6-methylphenyl)-2-hydroxythiazolo[4,5-d]pyrimidin-7(6H)-one], for which the activity at 10 µM stood at 110%. Turning to `Cc1cccc(Cl)c1-n1cnc2nc(Nc3cc(Cl)ncn3)sc2c1=O` [JWX-A0912, 6-(2-Chloro-6-methylphenyl)-2-((6-chloropyrimidin-4-yl)amino)thiazolo[4,5-d]pyrimidin-7(6H)-one], the activity at 10 µM was 200% and the EC50 is 10 µM. On to `Cc1cccc(Cl)c1-n1cnc2nc(Nc3ccc(Cl)nn3)sc2c1=O` [JWX-A0918, 6-(2-Chloro-6-methylphenyl)-2-((6-chloropyridazin-3-yl)amino)thiazolo[4,5-d]pyrimidin-7(6H)-one], for which the activity at 10 µM is 110%.

For `Cc1nc(Nc2nc3ncn(-c4c(C)cccc4Cl)c(=O)c3s2)cc(N2CCN(C)CC2)n1` [JWX-A1022, 6-(2-Chloro-6-methylphenyl)-2-((2-methyl-6-(4-methylpiperazin-1-yl)pyrimidin-4-yl)amino)thiazolo[4,5-d]pyrimidin-7(6H)-one], the activity at 10 µM came out at 110%.

For the molecule `Cc1ccc(Nc2nc3ncn(-c4c(C)cccc4Cl)c(=O)c3s2)cc1` [JWX-A1029, 6-(2-Chloro-6-methylphenyl)-2-(p-tolylamino)thiazolo[4,5-d]pyrimidin-7(6H)-one], the EC50 was determined as 7.47 µM. Turning to `COc1ccc(Nc2nc3ncn(-c4c(C)cccc4Cl)c(=O)c3s2)cc1` [JWX-A1030, 6-(2-Chloro-6-methylphenyl)-2-((4-methoxyphenyl)amino)thiazolo[4,5-d]pyrimidin-7(6H)-one], the activity at 10 µM was 200% and the EC50 amounted to 10 µM. The corresponding values for `Cc1cccc(Cl)c1-n1cnc2nc(Nc3ccc(Cl)cc3)sc2c1=O` [JWX-A1104, 6-(2-Chloro-6-methylphenyl)-2-((4-chlorophenyl)amino)thiazolo[4,5-d]pyrimidin-7(6H)-one] are 200% and 10 µM.

For `Cc1cccc(Cl)c1-n1cnc2nc(Nc3ccc(Br)cc3)sc2c1=O` [JWX-A1105, 6-(2-chloro-6-methylphenyl)-2-((4-Bromophenyl)amino)-thiazolo[4,5-d]pyrimidin-7(6H)-one], the activity at 10 µM was 150% and the EC50 worked out at 10 µM. In the case of `COc1cccc(Nc2nc3ncn(-c4c(C)cccc4Cl)c(=O)c3s2)c1` [JWX-A1106, 6-(2-chloro-6-methylphenyl)-2-((3-methoxyphenyl)amino)thiazolo[4,5-d]pyrimidin-7(6H)-one], the activity at 10 µM came to 150% and the EC50 worked out at 10 µM. As for `Cc1cccc(Cl)c1-n1cnc2nc(Nc3cccc(Br)c3)sc2c1=O` [JWX-A1113, 6-(2-chloro-6-methylphenyl)-2-((3-Bromophenyl)amino)-thiazolo[4,5-d]pyrimidin-7(6H)-one], the activity at 10 µM turned out to be 200% and the EC50 was 10 µM. For `Cc1cccc(Cl)c1-n1cnc2nc(N(C)c3ccccc3)sc2c1=O` [JWX-A1114, 6-(2-Chloro-6-methylphenyl)-2-(methyl(phenyl)amino)thiazolo[4,5-d]pyrimidin-7(6H)-one], the activity at 10 µM amounted to 150% and the EC50 turned out to be 10 µM. For the molecule `Cc1cccc(Cl)c1-n1cnc2nc(Nc3cccc(Cl)c3)sc2c1=O` [JWX-A1116, 6-(2-Chloro-6-methylphenyl)-2-((3-chlorophenyl)amino)thiazolo[4,5-d]pyrimidin-7(6H)-one], the activity at 10 µM turned out to be 300% and the EC50 worked out at 10 µM.

With `Cc1cccc(Cl)c1-n1cnc2nc(Nc3ccc(F)cc3)sc2c1=O` [JWX-A1119, 6-(2-Chloro-6-methylphenyl)-2-((4-fluorophenyl)amino)thiazolo[4,5-d]pyrimidin-7(6H)-one], the activity at 10 µM is 250% and the EC50 came out at 10 µM. Regarding `Cc1cccc(Nc2nc3ncn(-c4c(C)cccc4Cl)c(=O)c3s2)c1` [JWX-A1211, 6-(2-Chloro-6-methylphenyl)-2-(m-tolylamino)thiazolo[4,5-d]pyrimidin-7(6H)-one], the EC50 was 8.39 µM. Take `Cc1cccc(Cl)c1-n1cnc2nc(Nc3cccc(F)c3)sc2c1=O` [JWX-A1214, 6-(2-Chloro-6-methylphenyl)-2-((3-fluorophenyl)amino)thiazolo[4,5-d]pyrimidin-7(6H)-one]: the activity at 10 µM is 450% and the EC50 is 7.65 µM.

Regarding `Cc1cccc(Cl)c1-n1cnc2nc(SCc3ccccc3)sc2c1=O` [JWX-A1223, 6-(2-chloro-6-methylphenyl)-2-(Benzylthio)thiazolo[4,5-d]pyrimidin-7(6H)-one], the EC50 turned out to be 1.26 µM.
